Assay results taken from US20150290105A1, “COMPOSITION COMPRISING SYRINGARESINOL FOR IMPROVING THE SKIN” (AMOREPACIFIC CORPORATION, priority 2011, published 2015).

What was measured:
involucrin = experiment: Involucrin expression promoting effect in human keratinocytes; format: cell-based; conditions: HaCaT cells, FIG. 5
Experimental: (§1) Human keratinocyte HaCaT cells were cultured in substantially the same manner as in Test Example 10.
cDNA was synthesized in substantially the same manner as in Test Example 10 and the expression pattern of the filaggrin, involucrin and GAPDH genes was monitored substantially the same manner as in Test Example 10 using the synthesized cDNA and predesigned primers and probes (Applied Biosystems; […]; GAPDH, Hs99999905_ml).

[1] = test system: Melanocytes (Mel-Ab cells); experiment: Melanin production inhibiting effect in mouse melanocytes; format: cell-based; conditions: Mel-Ab cells, 3 consecutive days; hydroquinone 10 ppm
Experimental: The melanin production inhibiting effect of the syringaresinol obtained in Example was evaluated using mouse melanocytes. First, melanocytes (Mel-Ab cells) derived from C57BL/6 (treated with Dooley et al.'s method) were cultured under the condition of 37° C. and 5% CO2 in Dulbecco's modified Eagle's medium (DMEM) containing 10% fetal bovine serum, 100 nM 12-O-tetradecanoylphorbol-13-acetate and 1 nM cholera toxin. […] After removing the culture medium and washing with PBS, the cells were dissolved with 1 N sodium hydroxide and absorbance was measured at 400 nm. Melanin production inhibiting rate (%) was calculated according to Equation 2 from the measured absorbance. Melanin production inhibiting rate (%)=100−(Absorbance of test substance) /(Absorbance of control substance)×100 [Equation 2]

interleukin 6 gene = experiment: Interleukin 6 gene expression in keratinocytes (Q-RT-PCR); format: cell-based; conditions: 24 hours, relative to non-treated control
Experimental: Interleukin 6 (IL-6) is a cytokine secreted by keratinocytes, etc. Increased secretion owing to activation of the IL-6 gene leads to bright skin color and skin tone and suppressed skin pigmentation such as melasma or blemish. It was investigated whether syringaresinol can increase the expression of the IL-6 gene in skin keratinocytes.
Keratinocytes were treated with 10 ppm or 100 ppm syringaresinol. 24 hours later, the cells were recovered and washed twice with 10 mL of PBS. Then, total RNA was isolated from the cells using TRIzol reagent (Invitrogen, Carlsbad, Calif., USA). The isolated RNA was purified once more using the Qiagen RNeasy kit (Qiagen, Valencia, Calif.) and cDNA was synthesized therefrom using the Superscript Reverse Transcriptase (RT) II kit (Invitrogen, Carlsbad, Calif.). Subsequently, the change in the expression of the interleukin 6 gene was quantitatively analyzed by real-time reverse transcription polymerase chain reaction (Q-RT-PCR). The change in the gene expression pattern was evaluated using the TaqMan gene expression assay kit (Applied Biosystems, Forster City, Calif.). Hs00174360_ml was used as a primer. The expression level of interleukin 6 in the cells was analyzed by real-time PCR and was calculated relative to a non-treated control group.

[2] = Keratin reducing effect on human skin (Charm View); format: in vivo
Experimental: In order to investigate whether syringaresinol can reduce the keratin of skin, syringaresinol of the same concentration as in Test Example 6 was applied on the inside of the lower arms of 50 male and female adults in their 20s and 30s and without skin diseases. 24 hours later, the reduced amount of keratin was measuring using Charm View (Moritex, Japan). The initial amount of skin keratin prior to application of the test substance measured with Charm View under a constant-temperature (24° C.), constant-humidity (40%) condition was used as a reference value, and the change in the amount of keratin was measured 24 hours later.

TGF-β1 = TGF-β1 production in fibroblasts (ELISA); format: cell-based, human; conditions: HDF cells, 24 hours
Experimental: Human fibroblast HDF cells were cultured in substantially the same manner as in Test Example 10.
The cultured cells were treated with syringaresinol dissolved in DMSO to a concentration of 20, 50 or 100 μM for 24 hours. After 24 hours, the cell culture was recovered.
The quantity of TGF-β1 produced in the recovered cell culture was measured using the Quantikine™ high-sensitivity ELISA kit (R&D Systems, USA) according to the manufacturer's instructions. All the samples required for the measurement of the quantity of TGF-β1 were provided by the kit. First, the recovered cell culture was transferred to a 96-well microplate uniformly coated with TGF-β1 antibody and it was allowed for antigen-antibody reaction to proceed at 37° C. for 1 hour. After removing the cell culture, the wells were washed 3 times with PBS. Then, horseradish peroxidase-conjugated secondary antibody was added to each well and it was allowed for antigen-antibody reaction to proceed for 1 hour. Subsequently, after adding tetramethylbenzidine as a chromogenic substrate to each well, followed by reaction at room temperature for 15 minutes, 1 N sulfuric acid was added to stop the reaction. Then, absorbance was measured at 450 nm using a spectrophotometer. After drawing a standard curve using a standard solution, the TGF-β1 production amount in the cell culture with the test substance added was calculated from the measured absorbance.

collagen IV = experiment: UV-induced collagen breakdown in human keratinocytes (western blot); format: cell-based; conditions: HaCaT cells, 50 μM, UVB 30 mJ/cm^2, FIG. 6
Experimental: as §1
The cultured cells were treated with trypsin to obtain a single-cell suspension. Then, the cells were distributed in a 6-well plate, with 2×10^5 cells per well, and cultured for 24 hours. Subsequently, after replacing the medium with DMEM not containing fetal bovine serum and culturing again for 24 hours, the cells were treated with 50 μM syringaresinol dissolved in DMSO. After treating for 24 hours, the cells were washed with PBS and UVB of 30 mJ/cm^2 was irradiated in PBS. After discarding the PBS, the cells were added to a medium containing syringaresinol of the same concentration. As a control group, the cells were cultured in the same manner without treating with syringaresinol. […] Then, after centrifuging at 4° C. for 10 minutes with 15,000 g, the supernatant was recovered and protein was quantitated using Bio-Rad Protein Dye ReagentTM. […] Bands on the film were scanned with PowerLook 2100 XL (UMAX) and analyzed with the image-analyzing program ImageMaster 2D Elite (Amersham Bioscience).

## COc1cc(C2OCC3C(c4cc(OC)c(O)c(OC)c4)OCC23)cc(OC)c1O (stereo not shown) [Syringaresinol, syringaresinol]
involucrin
  Expression of involucrin: increases the expression
[1]
  Melanin production inhibiting rate (%): 85.7%
Interleukin 6 gene; 10 ppm
  Expression of IL-6 gene: 3.5
Interleukin 6 gene; 100 ppm
  Expression of IL-6 gene: 8.2
[2]; 1% applied on lower arm, 24 hours
  Amount of skin keratin, 24 hours later: 11.9
[2]; reference value, 24° C., 40% humidity
  Amount of skin keratin, Before application: 20.3
TGF-β1; 20 μM
  TGF-β1 production amount: 43.3 ± 1.0
TGF-β1; 50 μM
  TGF-β1 production amount: 87.2 ± 4.2
TGF-β1; 100 μM
  TGF-β1 production amount: 92.1 ± 5.6
Collagen IV
  UV-induced collagen breakdown: inhibits collagen breakdown
